Test results from patent US20260286573A1, “3D PRINTING ELECTROSPINNING SYSTEMS AND METHODS” (Board of Regents, The University of Texas System, priority 2023, published 2026).

Assay: Thermogravimetric analysis (TGA), thermal stability
Type: physicochemical
Conditions: for decrease in mass, initial phase of TGA (surface-absorbed water): 10 °C/min, nitrogen
Method: Thermogravimetric Analysis (TGA). FIG. 13 provides data showing thermogravimetric analysis (TGA) of raw materials and mixtures according to some examples. In some examples, the thermal properties of the raw materials and physical mixtures may be determined through a Mettler-Toledo TGA/DSC1 analyzer (Mettler-Toledo, Schwerzenbach, Switzerland). Sample raw materials and physical mixtures may be placed in an open ceramic crucible and ramped from 35° C. to 600° C. at a rate of 10° C./min. A furnace may be purged using ultra-purified nitrogen at a flow rate of 50 mL/min.
Thermogravimetric analysis (TGA) was conducted to examine the degradation patterns and thermal stabilities of EPO, S100, CUR, RTV, and Xspin bi-fibers (FIG. 13). TGA measures the change in sample mass as a function of temperature using a thermobalance.

SMILES | weight loss, second phase of TGA (between 20° and 250° C.) [%] | second weight loss (TGA) (between 30° and 395° C.) | decrease in mass, initial phase of TGA (surface-absorbed water) | weight loss, second phase of TGA (between 245 and 420° C.) [%]
CC(C)c1nc(CN(C)C(=O)N[C@H](C(=O)N[C@@H](Cc2ccccc2)C[C@H](O)[C@H](Cc2ccccc2)NC(=O)OCc2cncs2)C(C)C)cs1 [RTV, Ritonavir] | 40 | ~ 50% | no losses | –
COc1cc(/C=C/C(=O)CC(=O)/C=C/c2ccc(O)c(OC)c2)ccc1O [CUR, Curcumin] | – | – | no losses | 60
